Test results as given in PMC8825254, “Rational design of Striga hermonthica-specific seed germination inhibitors” (Plant Physiology, 2021).
Where two headings read alike, the source gives them in different places.

What was measured:
ShHTL7 [1] = molecular target: T1, ShHTL7 (Striga hermonthica, UniProt A0A0M3PNA2); assay: YLG hydrolysis competition assay with ShHTL7; format: biochemical
T1 sequence (A0A0M3PNA2 1-271): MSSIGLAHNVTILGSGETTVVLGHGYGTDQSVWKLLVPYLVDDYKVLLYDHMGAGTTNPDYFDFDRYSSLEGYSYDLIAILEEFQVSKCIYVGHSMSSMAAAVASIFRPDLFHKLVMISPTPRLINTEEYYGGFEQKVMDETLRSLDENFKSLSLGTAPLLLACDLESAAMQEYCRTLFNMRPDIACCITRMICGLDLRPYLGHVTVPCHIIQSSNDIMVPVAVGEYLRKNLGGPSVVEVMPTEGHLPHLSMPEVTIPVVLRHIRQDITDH
Experimental: About 0.33 µM of ShHTL7 protein was used to conduct in vitro hydrolysis of YLG (1 µM) as a substrate in a total volume of 100 µL of phosphate-buffered saline (1× PBS) containing 0.1% DMSO in 96-well black plate (Greiner Kremsmünster, Austria; [Tsuchiya et al., 2015]). The hydrolysis of YLG over time and changes in the fluorescence intensity was measured by SpectraMax i3 (Molecular Devices, San Jose, CA, USA) using an excitation wavelength of 480 nm and detection wavelength of 520 nm and recorded at 10 min intervals for 2 h. YLG in 1× PBS without protein was used as a control. […] Measurement of the fluorescence was conducted in SpectraMax i3 (Molecular Devices) using the above-mentioned method. The relative fluorescence unit was calculated by subtracting the auto-fluorescence of YLG in the buffer from the fluorescence values of YLG in the presence of a protein. The inhibitory curve and IC50 were determined using https://www.aatbio.com/tools/ic50-calculator website.

OsD14 = molecular target: T2, OsD14 (Oryza sativa subsp. japonica, UniProt Q10QA5); assay: YLG hydrolysis competition assay with OsD14; format: biochemical, rice (Oryza sativa)
T2 construct: made in house; host or cells: Escherichia coli BL21 (DE3)
T2 sequence (Q10QA5 1-318): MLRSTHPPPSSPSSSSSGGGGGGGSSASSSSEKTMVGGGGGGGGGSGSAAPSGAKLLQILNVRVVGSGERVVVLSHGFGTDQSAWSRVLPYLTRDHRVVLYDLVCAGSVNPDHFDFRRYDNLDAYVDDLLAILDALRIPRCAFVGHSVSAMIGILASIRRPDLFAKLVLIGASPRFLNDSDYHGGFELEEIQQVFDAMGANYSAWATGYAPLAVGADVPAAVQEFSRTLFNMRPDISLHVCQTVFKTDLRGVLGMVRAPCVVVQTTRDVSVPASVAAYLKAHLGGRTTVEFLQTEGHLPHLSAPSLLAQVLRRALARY

ShHTL7 [2] = molecular target: T1, ShHTL7; assay: DSF thermal stability of ShHTL7; format: binding; settings: for Effect on SYPRO orange fluorescence peak of ShHTL7: 0 to 100 µM, result in words
Experimental: About 10 µM of ShHTL7 purified protein was incubated with various concentrations of KK023-N1, Triton X-100, or KK094 (ranging from 0 to 100 µM) for 30 min. Then SYPRO Orange (reporter dye) was added to 1× final concentration. The reactions were carried out in 25 µL 1× PBs buffer. The assay was performed on CFX96 Real-Time System (BIO-RAD, Hercules, CA, USA) thermal cycler on 96-well quantitative polymerase chain reaction (qPCR) white plate, and the plate was sealed with adhesive qPCR plate seal to prevent samples evaporation ([Bai et al., 2019]). First, samples were heated to 25°C for 1 min followed by linear increase in the temperature ramp from 25°C to 99°C at a rate of 0.5°C/15 s. The change in the protein folding was monitored by the changes in the fluorescence of the reporter dye, and the data were analyzed by the machine software that plots the inflection point of fluorescence against temperature. Data were exported into Excel, and replicates were averaged to generate the graph.

Striga hermonthica seeds = assay: Striga seed germination bioassay (seeds from Sudan); format: in vivo; settings: for Reduction in Striga seed germination compared to the GR24 treatment: 20-40 µM inhibitor
Experimental: Striga seeds were surface sterilized by 20% Sodium hypochlorite (NaClO) for 10 min followed by successive 6 times washing with sterilized MilliQ water. Seeds were kept to dry under the laminar flow cabinet, and ∼50–100 sterilized Striga seeds were spread uniformly on a glass fiber filter paper disc (9 mm). For preconditioning, around 12 discs were put in a petri plate on a filter paper moistened with 3 mL sterilized MilliQ water. Plates were then sealed with parafilm and kept in an incubator for 10 d at 30°C (in dark). After preconditioning, plates were removed from the incubator and dried, and discs were pre-treated with different concentrations (0, 5, 10, 20, 40, 80, 160, 320, and 640 μM) of KK023-N1, KK023-N2, Triton X-100, or KK094 for 24 h. Next day, a combination of the inhibitors (same concentrations) along with GR24 (0.5 nM or 1 nM) was applied, and discs were incubated at 30°C for 24 h. For inhibitory effect of KK023-N1 and -N2 on Striga seeds obtained from Kenya, seeds were treated with (0, 3, 6, 12, 25, 50,100, 200, 400, and 800 μM). After image scanning, germinated and nongerminated seeds were counted and germination rate (%) was calculated by using SeedQuant software ([Braguy et al., 2021)].

Rice d17 seedlings = assay: Rice micro tillering assay, SL-deficient mutant d17 with GR24; format: in vivo, rice (Oryza sativa); settings: compound with 1.0 µM GR24; result in words
Experimental: (§1) Rice seeds of WT (cv Nipponbare) or SL-deficient mutant (d17), were surface sterilized with 2.5% NaClO and 0.05% of Tween-20 for 10 min, and rinsed 6 times with sterilized MilliQ water. About 30 seeds were placed on sterilized Magenta GA-7 plant culture box containing 0.5% MS medium with 0.4% agar and incubated at 30°C in dark. After 2 d, boxes were moved to a growth chamber and allowed to grow for another 5 d under fluorescent white light (130–180 μM m^−2 s^−1). Equally grown seedlings were transplanted in 50-mL black tubes filled with Hoagland nutrient solution (1 seedling/tube). Seedlings were treated with 10, 50, and 100 µM of each compound (KK023-N1, Triton X-100, and KK094). The compounds were applied twice a week for 2 weeks to test their effects on the growth of WT plants. SL-deficient seedlings (d17) were treated as WT but with the addition of 1 µM GR24. Number of tillers per plant, plant height, and dry biomass were measured at final harvest.

Striga hermonthica = assay: Striga emergence study in infested rice pots under greenhouse conditions; format: in vivo, Striga hermonthica on rice cv IAC165; settings: for Change in Striga emergence compared to mock: Figure 10B; for Rice plant height, change: Striga-infested pots, Figure 10C
Experimental: Approximately 6,000 Striga seeds (20 mg) were weighed, mixed with sand/soil mixture (1:2 ratio), and put into a 3-L perforated plastic pot containing 0.5-L clean sand/soil mixture in the bottom. The pots were kept under greenhouse-controlled conditions at 30°C and kept moist with water for Striga preconditioning for 10 d. Formulated KK023-N1 and Triton X-100 were applied (at 100 mL per pot) at 10 and 100 µM concentration. Then three rice seedlings (cv IAC165, 10 d old) were planted in each pot after 24 h of inhibitor application. All the treatments were applied continuously twice per week for 4 weeks. Water with same amount of solvent (Cyclohexanone+Atlas-G) was used as a control. Pots were irrigated with 200 mL of Hoagland’s nutrient solution with low phosphate (4 µM) when needed. The rice plants were allowed to grow under greenhouse conditions for 10 weeks and the emerged Striga plants were counted from each pot. The height of rice plants was also measured to see impact of Striga infestation on host growth.

[3] = system: Rice WT (cv Nipponbare) seedlings; assay: Rice micro tillering assay, WT, hydroponics; format: in vivo, rice (Oryza sativa); settings: 10, 50 and 100 µM, 2 weeks, result in words
Experimental: as §1

ShHTL5 = ShHTL5 (Striga hermonthica, UniProt A0A0M5I297); assay: YLG hydrolysis competition assay with ShHTL5; format: biochemical; settings: result in words
ShHTL5, sequence (A0A0M5I297 entry or part of it): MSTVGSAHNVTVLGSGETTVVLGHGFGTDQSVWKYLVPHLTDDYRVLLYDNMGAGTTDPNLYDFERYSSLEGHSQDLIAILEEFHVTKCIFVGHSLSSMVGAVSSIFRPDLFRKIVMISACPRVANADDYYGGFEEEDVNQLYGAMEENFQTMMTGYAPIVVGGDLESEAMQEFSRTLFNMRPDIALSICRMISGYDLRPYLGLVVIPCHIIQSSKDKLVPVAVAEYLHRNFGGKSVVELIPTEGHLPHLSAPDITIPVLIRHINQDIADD

[4] = system: Rice seeds (cv Nipponbare); assay: Rice germination and seedling growth in response to inhibitors; format: in vivo, rice (Oryza sativa); settings: result in words
Experimental: Rice seeds (cv Nipponbare) were surface sterilized in 2.5% NaClO and 0.05% of Tween-20 for 10 min, and rinsed 6 times with sterilized MilliQ water. Seeds were imbibed in sterilized water at 30°C for 24 h in the dark. Next day, ∼3 mL of each inhibitor at different concentrations (3, 6, 12, 25, 50, and 100 μM) was added along with 0.5 Murashige and Skoog (MS) medium into 24-well plate, and one imbibed rice seed was placed in each well. The experiment was performed in six replications (one plant/well, n = 6) for each concentration. Nontreated rice seeds in 0.5-MS solution were included as a control. Seeds were allowed to germinate at 30°C in the dark for 48 h for monitoring seeds germination, and seeds were moved to a growth chamber with white fluorescent light (130–180 μM m^−2 s^−1) and12 h:12 h (Light/Dark (L/D)) period at 28°C. After 1 week, length of rice seedlings was measured and recorded, and pictures of seedlings were taken.

ShHTL7 [5] = molecular target: T1, ShHTL7; set-up: method as in Holbrook-Smith et al., 2016; Yoneyama, 2016; settings: previously reported, ref Holbrook-Smith et al., 2016, Yoneyama, read-out: IC50, competitive inhibition of ShHTL7-mediated YLG hydrolysis; cited from earlier work
[6] = 0.33 µM ShHTL7, 1 µM YLG, read-out: IC50, inhibition of ShHTL7-mediated YLG hydrolysis

Molecule: CC1=C[C@H](O/C=C2/C(=O)O[C@@H]3c4ccccc4C[C@H]23)OC1=O [GR24]
- IC50 (ShHTL7 [1]; [6]): 270 nM
- IC50 (OsD14; 0.33 µM OsD14, 1 µM YLG, read-out: IC50, inhibition of OsD14-mediated YLG hydrolysis): 2.59 µM
- Decrease of ShHTL7 melting temperature (ShHTL7 [2]): 7 °C
- Melting temperature of ShHTL7 (ShHTL7 [2]; high concentrations of compound, 50°C without): 43 °C

Molecule: Triton X-100 [reference compound]
- IC50 (ShHTL7 [1]; [6]): 470 nM
- Effect on SYPRO orange fluorescence peak of ShHTL7 (ShHTL7 [2]): reduction in the peak fluorescence
- Reduction in Striga seed germination compared to the GR24 treatment (Striga hermonthica seeds; GR24 0.5 or 1.0 nM): 31%
- Effect on GR24 action on tillering of d17 rice (Rice d17 seedlings): did not block the GR24 effect on rice tillers
- Change in Striga emergence compared to mock (Striga hermonthica; 10 µM): -13%
- Rice plant height, change (Striga hermonthica; 10 µM): -23%
- Change in Striga emergence compared to mock (Striga hermonthica; 100 µM): -25%
- Rice plant height, change (Striga hermonthica; 100 µM): -4%

Molecule: O=C(N1CCc2ccccc21)n1ccnn1 [KK094]
- IC50 (ShHTL7 [1]): > 25000 nM
- Effect on SYPRO orange fluorescence peak of ShHTL7 (ShHTL7 [2]): did not change the fluorescence peak
- Reduction in Striga seed germination (Striga hermonthica seeds; 20 µM inhibitor, GR24 0.5 or 1.0 nM): 50%
- Inhibition of Striga seed germination (Striga hermonthica seeds; 80 µM, result in words): complete inhibition
- inhibition at 100 µM (Striga hermonthica seeds; Striga hermonthica, 100 µM): 100%
- Effect on dry biomass of WT rice [3]: reduction in plant height and dry biomass
- Effect on plant height of WT rice [3]: reduction in plant height
- Effect on tillering of WT rice [3]: significant increase in rice tillering
- Effect on GR24 action on tillering of d17 rice (Rice d17 seedlings): blocked D14, resulting in increased tillering phenotype

Molecule: COc1ccc(CCCc2cccc3c2CCN3C(=O)n2nccn2)cc1 [KK023-N2]
- IC50 (ShHTL7 [1]): 2150 nM
- IC50 (OsD14; Figure 3D-F, mean ± SD, n = 3, no unit printed with values (x-axis µM), read-out: IC50, OsD14-mediated YLG hydrolysis (Figure 3)): > 50 µM
- Effect on YLG hydrolysis by ShHTL5 (ShHTL5): did not influence the YLG hydrolysis
- Reduction in Striga seed germination compared to the GR24 treatment (Striga hermonthica seeds; GR24 0.5 or 1.0 nM): around 42%
- Effect on rice seedling plant height ([4]; all treatments (3-100 µM), 1 week): no effect on plant height was observed
- Effect on rice seed germination ([4]; up to 100 µM): did not detect any effect on seed germination
- Phenotype of treated rice seedlings versus control ([4]; up to 100 µM): did not show any significant phenotypic difference

Molecule: CCOC(=O)C1(Cc2cccc(C(F)(F)F)c2)CCN(Cc2ccc(C#CCCO)cc2)CC1 [Soporidine]
- IC50 (ShHTL7 [5]): 12500 nM
